# Laboratory results from patent US11446260B2, “Pharmaceutical composition of S-ketamine hydrochloride” (Janssen Pharmaceutica NV, priority 2013, dated 2022).
# Columns and labels:
# Assay type in all cases: cell-based
# P. aeruginosa = experiment: Full AET Challenge Test; conditions: Pseudomonas aeruginosa; summary of Examples 1 and 2
# A. brasiliensis = experiment: Full AET Challenge Test; conditions: Aspergillus brasiliensis; summary of Examples 1 and 2
# E. coli = experiment: Full AET Challenge Test; conditions: Escherichia coli; summary of Examples 1 and 2
# S. haemolyticus = experiment: Challenge test (Example 1); conditions: Staphylococcus haemolyticus; summary of Examples 1 and 2
# C. albicans = experiment: Full AET Challenge Test; conditions: Candida albicans; summary of Examples 1 and 2
# S. aureus = experiment: Full AET Challenge Test; conditions: Staphylococcus aureus; summary of Examples 1 and 2
# M. luteus = experiment: Full AET Challenge Test; conditions: Micrococcus Luteus; summary of Examples 1 and 2
smiles,measurement,setting,value
"CN[C@]1(c2ccccc2Cl)CCCCC1=O.Cl [S-ketamine hydrochloride, (S)-2-(2-chlorophenyl)-2-(methylamino)cyclohexanone hydrochloride]",antimicrobial properties (summary in words),P. aeruginosa,strong antimicrobial properties
same,antimicrobial properties (summary in words),A. brasiliensis,some inhibitory activity
same,antimicrobial properties (summary in words),E. coli,strong antimicrobial properties
same,antimicrobial properties (summary in words),S. haemolyticus,strong antimicrobial properties
same,antimicrobial properties (summary in words),C. albicans,strong antimicrobial properties
same,antimicrobial properties (summary in words),S. aureus,strong antimicrobial properties
same,antimicrobial properties (summary in words),M. luteus,strong antimicrobial properties
